As usually defined, the IC50 is the concentration that gives 50% inhibition.

T1 sequence (Q9BXF3 424-538 limits assumed): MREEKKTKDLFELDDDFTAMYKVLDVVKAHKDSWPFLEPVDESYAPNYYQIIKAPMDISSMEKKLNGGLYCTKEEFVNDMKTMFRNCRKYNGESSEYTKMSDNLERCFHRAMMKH

The first experiment concerns the target T1, CECR2 (Homo sapiens, UniProt Q9BXF3).
T1 construct: 424-538 was cloned, expressed, and purified to homogeneity; Flag; made in house
As to the kind of experiment: CECR2 TR-FRET Binding Assay. The following applies: read-out: IC50. An excerpt:
IC50 Measurements for Inhibitors Using CECR2 TR-FRET Binding Assay
Background: In TR-FRET formats the signal depends on donor and acceptor labels being close together.
For the compound `CC(C)N1CCC(CN(C)C(=O)c2cn(C)c(=O)c3[nH]ccc23)C1` (stereo not shown) [Example 23, N-[(1-isopropylpyrrolidin-3-yl)methyl]-N,6-dimethyl-7-oxo-1H-pyrrolo[2,3-c]pyridine-4-carboxamide], the IC50 came to 2.1 µM.

Take `CN(CC1CCN(CC2CCC2)CC1)C(=O)c1cn(C)c(=O)c2[nH]ccc12` [Example 233]: the IC50 was determined as 0.77 µM. Same read-out and setting: the figure for `CN1CCC(CN(C)C(=O)c2cn(C)c(=O)c3[nH]ccc23)CC1` [Example 188] is 2 µM; for `C=CCn1cc(C(=O)N(C)C2CCN(c3cc(C)nc(C4CC4)n3)CC2)c2cc(C)[nH]c2c1=O` [Example 267, 6-allyl-N-(1-(2-cyclopropyl-6-methylpyrimidin-4-yl)piperidin-4-yl)-N,2-dimethyl-7-oxo-6,7-dihydro-1H-pyrrolo[2,3-c]pyridine-4-carboxamide] it is 0.017 µM; for `C=CCn1cc(C(=O)N(C)C2CCCc3cnccc32)c2cc(C)[nH]c2c1=O` (stereo not shown) [Example 283, 6-allyl-N,2-dimethyl-7-oxo-N-(5,6,7,8-tetrahydroisoquinolin-5-yl)-1H-pyrrolo[2,3-c]pyridine-4-carboxamide] it is 0.044 µM.

Consider `Cn1cc(C(=O)N2CCC(C(C)(C)O)CC2)c2cc[nH]c2c1=O` [Example 68, 4-[4-(1-hydroxy-1-methyl-ethyl)piperidine-1-carbonyl]-6-methyl-1H-pyrrolo[2,3-c]pyridin-7-one], for which the IC50 came to 3 µM. Still for that read-out and setting: the figure for `CN(CC1CCN(Cc2ccc(F)cc2)CC1)C(=O)c1cn(C)c(=O)c2[nH]ccc12` [Example 203] is 1.1 µM; for `CC1CCN(C(=O)c2cn(C)c(=O)c3[nH]ccc23)CC1` [Example 65, 6-methyl-4-(4-methylpiperidine-1-carbonyl)-1H-pyrrolo[2,3-c]pyridin-7-one] it is 1.4 µM; for `CN(CC1CCN(Cc2cccc(F)c2)CC1)C(=O)c1cn(C)c(=O)c2[nH]ccc12` [Example 202] it is 1.3 µM. On to `Cn1cc(C(=O)N2CCC(Cc3ccc(F)cc3)CC2)c2cc[nH]c2c1=O` [Example 69, 4-[4-[(4-fluorophenyl)methyl]piperidine-1-carbonyl]-6-methyl-1H-pyrrolo[2,3-c]pyridin-7-one], for which the IC50 came to 0.45 µM.

In the case of `C=CCn1cc(C(=O)N(C)C2CCCc3ccc(F)cc32)c2cc(C)[nH]c2c1=O` (stereo not shown) [Example 284], the IC50 was 0.053 µM. Still for that read-out and setting: the figure for `CN(C(=O)c1cn(C)c(=O)c2[nH]ccc12)C1CCN(Cc2cccc(Cl)c2)CC1` [Example 224] is 0.78 µM. Still for that read-out and setting: the figure for `C=CCn1cc(C(=O)N(C)C2CCC(C)(C)c3ccccc32)c2cc(C)[nH]c2c1=O` (single isomer, unassigned) [Example 280] is 0.049 µM; for `C=CCn1cc(C(=O)N(C)C2CCCc3c(C)cccc32)c2cc(C)[nH]c2c1=O` (stereo not shown) [Example 285] it is 0.15 µM. For `CN(C(=O)c1cn(C)c(=O)c2[nH]ccc12)C1CCN(Cc2cccc(C#N)c2)CC1` [Example 220], the IC50 worked out at 1.1 µM. Consider `CN(C(=O)c1cn(C)c(=O)c2[nH]ccc12)C1CCN(CC2CC2)CC1` [Example 208], for which the IC50 turned out to be 1.2 µM.

Consider `Cn1cc(C(=O)N2CCC3(CC2)COC3)c2cc[nH]c2c1=O` [Example 73, 6-methyl-4-(2-oxa-7-azaspiro[3.5]nonane-7-carbonyl)-1H-pyrrolo[2,3-c]pyridin-7-one], for which the IC50 was found to be 2.5 µM. On the same count and under the same terms, the figure for `CN(CC1CCN(CCC2CCCCC2)CC1)C(=O)c1cn(C)c(=O)c2[nH]ccc12` [Example 229] is 0.64 µM; for `C=CCn1cc(C(=O)N(C)C2CCCc3cc(OC)ccc32)c2cc(C)[nH]c2c1=O` (single isomer, unassigned) [Example 282] it is 0.067 µM; for `CN(C)C1CCC(NC(=O)c2cn(C)c(=O)c3[nH]ccc23)CC1` (stereo not shown) [Example 21, N-[4-(dimethylamino)cyclohexyl]-6-methyl-7-oxo-1H-pyrrolo[2,3-c]pyridine-4-carboxamide] it is 0.89 µM. Same read-out and setting: the figure for `C=CCn1cc(C(=O)N(C)C2CCCc3cc(OC)ccc32)c2cc(C)[nH]c2c1=O` (single isomer, unassigned) [Example 281] is 0.032 µM; for `Cn1cc(C(=O)NCCN2CCC(O)CC2)c2cc[nH]c2c1=O` [Example 30, N-[2-(4-hydroxy-1-piperidyl)ethyl]-6-methyl-7-oxo-1H-pyrrolo[2,3-c]pyridine-4-carboxamide] it is 3.8 µM. `C=CCn1cc(C(=O)N(C)C2CCC(C)(C)c3ccccc32)c2cc(C)[nH]c2c1=O` (single isomer, unassigned) [Example 279]: the IC50 worked out at 0.012 µM. Still for that read-out and setting: the figure for `C=CCn1cc(C(=O)N(C)C2CCCc3ccncc32)c2cc(C)[nH]c2c1=O` (single isomer, unassigned) [Example 290] is 0.05 µM; for `CN(C(=O)c1cn(C)c(=O)c2[nH]ccc12)C1CCN(c2ncc(C#N)cn2)CC1` [Example 141, N-[1-(5-cyanopyrimidin-2-yl)-4-piperidyl]-N,6-dimethyl-7-oxo-1H-pyrrolo[2,3-c]pyridine-4-carboxamide] it is 0.39 µM; for `CN(CC1CCN(Cc2ccccc2F)CC1)C(=O)c1cn(C)c(=O)c2[nH]ccc12` [Example 201] it is 0.99 µM. As for `CN(C(=O)c1cn(C)c(=O)c2[nH]ccc12)C1CCN(CCc2ccccc2F)CC1` [Example 253], the IC50 turned out to be 0.98 µM. Same read-out and setting: the figure for `CC(C)N1C2CCC1CC(N(C)C(=O)c1cn(C)c(=O)c3[nH]ccc13)C2` (stereo not shown) [Example 242] is 1.4 µM; for `COCCN1CCC(CCN(C)C(=O)c2cn(C)c(=O)c3[nH]ccc23)CC1` [Example 185] it is 0.91 µM. Same read-out and setting: the figure for `C=CCn1cc(C(=O)N(C)C2CCN(c3cc(C)nc(C4CC4)n3)CC2)c2cc[nH]c2c1=O` [Example 168, 6-allyl-N-[1-(2-cyclopropyl-6-methyl-pyrimidin-4-yl)-4-piperidyl]-N-methyl-7-oxo-1H-pyrrolo[2,3-c]pyridine-4-carboxamide] is 0.042 µM; for `CN(C)C1CCN(C(=O)c2cn(C)c(=O)c3[nH]ccc23)C1` (stereo not shown) [Example 60, 4-[3-(dimethylamino)pyrrolidine-1-carbonyl]-6-methyl-1H-pyrrolo[2,3-c]pyridin-7-one] it is 10.3 µM; for `COCCN1CCC(N(C)C(=O)c2cn(C)c(=O)c3[nH]ccc23)CC1` [Example 225] it is 1.4 µM. Same read-out and setting: the figure for `CN(CC1CCN(CC2CCCCC2)CC1)C(=O)c1cn(C)c(=O)c2[nH]ccc12` [Example 206] is 0.37 µM; for `COC1CCN(C(=O)c2cn(C)c(=O)c3[nH]ccc23)CC1` [Example 66, 4-(4-methoxypiperidine-1-carbonyl)-6-methyl-1H-pyrrolo[2,3-c]pyridin-7-one] it is 2.4 µM; for `CC1CN(C(=O)c2cn(C)c(=O)c3[nH]ccc23)CCC1N(C)C` (stereo not shown) [Example 78, 4-[4-(dimethylamino)-3-methyl-piperidine-1-carbonyl]-6-methyl-1H-pyrrolo[2,3-c]pyridin-7-one] it is 9.9 µM.

As to `C=CCn1cc(C(=O)N(C)C2CCCc3c(OC)cccc32)c2cc(C)[nH]c2c1=O` (single isomer, unassigned) [Example 289], the IC50 was 0.045 µM.

`C=CCn1cc(C(=O)N(C)C2CCOc3cc(F)ccc32)c2cc(C)[nH]c2c1=O` (stereo not shown) [Example 278]: the IC50 stood at 0.057 µM. Turning to `Cc1ccc(N2CCC(N(C)C(=O)c3cn(C)c(=O)c4[nH]ccc34)CC2)cc1` [Example 176, N,6-dimethyl-7-oxo-N-[1-(p-tolyl)-4-piperidyl]-1H-pyrrolo[2,3-c]pyridine-4-carboxamide], the IC50 came out at 0.93 µM. Regarding `CN1CCC(CCN(C)C(=O)c2cn(C)c(=O)c3[nH]ccc23)CC1` [Example 181, N,6-dimethyl-N-[2-(1-methyl-4-piperidyl)ethyl]-7-oxo-1H-pyrrolo[2,3-c]pyridine-4-carboxamide], the IC50 was determined as 0.73 µM. Consider `CN(C)C(=O)C1CCN(C(=O)c2cn(C)c(=O)c3[nH]ccc23)CC1` [Example 74, N,N-dimethyl-1-(6-methyl-7-oxo-1H-pyrrolo[2,3-c]pyridine-4-carbonyl)piperidine-4-carboxamide], for which the IC50 was 5.9 µM. On the same count and under the same terms, the figure for `CN(C(=O)c1cn(C)c(=O)c2[nH]ccc12)C1CCN(Cc2ccccc2Cl)CC1` [Example 223] is 0.97 µM; for `C=CCn1cc(C(=O)N(C)C2CCN(c3ccnc(C#N)n3)CC2)c2cc[nH]c2c1=O` [Example 160, 6-allyl-N-[1-(2-cyanopyrimidin-4-yl)-4-piperidyl]-N-methyl-7-oxo-1H-pyrrolo[2,3-c]pyridine-4-carboxamide] it is 0.18 µM; for `C=CCn1cc(C(=O)N(C)C2CCCc3c(F)cccc32)c2cc(C)[nH]c2c1=O` (single isomer, unassigned) [Example 286] it is 0.041 µM. With `CN(CCC1CCN(C2CCC2)CC1)C(=O)c1cn(C)c(=O)c2[nH]ccc12` [Example 184], the IC50 stood at 0.47 µM.

Take `CN(CC1CCN(C2CC2)CC1)C(=O)c1cn(C)c(=O)c2[nH]ccc12` [Example 192]: the IC50 came to 1.4 µM. Same read-out and setting: the figure for `CCN(CC)C1CCN(C(=O)c2cn(C)c(=O)c3[nH]ccc23)CC1` [Example 79, 4-[4-(diethylamino)piperidine-1-carbonyl]-6-methyl-1H-pyrrolo[2,3-c]pyridin-7-one] is 5.1 µM; for `CC(C)N1CCC(CCN(C)C(=O)c2cn(C)c(=O)c3[nH]ccc23)CC1` [Example 183] it is 0.49 µM. For `C=CCn1cc(C(=O)N(C)C2CCN(c3ncnc4c3CCC4)CC2)c2cc[nH]c2c1=O` [Example 163, 6-allyl-N-[1-(6,7-dihydro-5H-cyclopenta[d]pyrimidin-4-yl)-4-piperidyl]-N-methyl-7-oxo-1H-pyrrolo[2,3-c]pyridine-4-carboxamide], the IC50 was 0.091 µM.

The target of a further experiment is T2, TAF1-BD2 (Homo sapiens, UniProt P21675).
T2 sequence (P21675 1525-1656): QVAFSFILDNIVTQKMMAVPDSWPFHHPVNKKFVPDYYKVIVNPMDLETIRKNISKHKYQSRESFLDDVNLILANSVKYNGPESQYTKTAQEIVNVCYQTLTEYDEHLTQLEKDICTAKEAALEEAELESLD
As to the kind of experiment: TAF1-BD2 TR-FRET Binding Assay. Conditions: Assay: TAF-1.
Method: Specifically, in a 384 well ProxiPlate TAF1-BD2 (6 nM final) was combined with biotin-ligand (50 nM final) in 50 mM HEPES (pH 7.5), 50 mM NaCl, 1 mM TCEP, 0.01% (w/v) BSA, and 0.008% (w/v) Brij-35 either in the presence of DMSO (final 0.2% DMSO) or compound dilution series in DMSO. After 10 minutes incubation at room temperature, a mixture Eu-W1024 Anti-6×His antibody (Perkin Elmer AD0110) and SureLight™ Allophycocyanin-Streptavidin (APC-SA, Perkin Elmer CR130-100) were added to a final concentrations of 0.2 nMolar antibody and 25 nMolar APC-SA, respectively. After twenty minutes of equilibration, the plates were read on an Envision instrument and IC50s calculated using a four parameter non-linear curve fit.
Compound `CC=CCn1cc(C(=O)NC(C)(C)C)c2cc[nH]c2c1=O` [Example 15, 6-but-2-enyl-N-tert-butyl-7-oxo-1H-pyrrolo[2,3-c]pyridine-4-carboxamide] had an IC50 of 0.97 µM.

The values are drawn from patent publication US10258603B2 (priority 2014, dated 2019).
